Values joined by “and” are separate entries in the source; they are usually repeats but may differ in a detail not shown here. Equal entries are not always repeated.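 All cell lines were grown in 96-well plates and treated with compound for 48 hours. GI50 = concentration required for 50% inhibition of growth.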 Active and inactive are the calls of the source. No stated cut-off is given here; in the data, active = GI50 up to about 1.1 µM and inactive = higher.
Legend:
Assay in all cases: DTP human tumour cell line panel, 48 h
NCI-H522 = system: NCI-H522
IGROV-1 = system: IGROV-1
SK-MEL-5 = system: SK-MEL-5
KM12 = system: KM12
UO-31 = system: UO-31
SF-295 = system: SF-295
A549 = system: A549
SW-620 = system: SW-620
786-0 = system: 786-0
SK-MEL-28 = system: SK-MEL-28
SF-539 = system: SF-539
SNB-19 = system: SNB-19
SK-OV-3 = system: SK-OV-3
HL-60 = system: HL-60
NCI-H226 = system: NCI-H226
SK-MEL-2 = system: SK-MEL-2
HCT-15 = system: HCT-15
OVCAR-5 = system: OVCAR-5

Measured: GI50

CCOc1ccccc1NC(=O)CCc1n[nH]c(=S)o1
inactive: NCI-H522 > 100 µM | IGROV-1 > 10 µM | SK-MEL-5 > 100 µM | KM12 > 100 µM | UO-31 63.4 µM | SF-295 > 100 µM | A549 > 100 µM | SW-620 > 100 µM | 786-0 > 100 µM | SK-MEL-28 > 100 µM | SF-539 > 100 µM | SNB-19 > 100 µM | SK-OV-3 > 100 µM | HL-60 > 100 µM | NCI-H226 > 100 µM | SK-MEL-2 > 100 µM

CCCCCn1cnc2c1S(=O)(=O)N(C)C(NC(=O)c1ccccc1)=N2
inactive: NCI-H522 > 100 µM | IGROV-1 > 100 µM | SK-MEL-5 > 100 µM | KM12 > 100 µM | UO-31 > 100 µM | SF-295 > 100 µM | A549 > 100 µM | SW-620 > 100 µM | 786-0 > 100 µM | SK-MEL-28 > 100 µM | SF-539 > 100 µM | SNB-19 > 100 µM | SK-OV-3 > 100 µM | HL-60 > 100 µM | NCI-H226 > 100 µM | SK-MEL-2 > 100 µM
> 100 µM: HCT-15

Cc1ccc(S(=O)(=O)NNS(C)(=O)=O)cc1
> 100 µM: HCT-15
inactive: NCI-H522 > 100 µM | IGROV-1 > 100 µM | SK-MEL-5 > 100 µM | KM12 > 100 µM | UO-31 > 100 µM | SF-295 > 100 µM | A549 > 100 µM | SW-620 > 100 µM | 786-0 > 100 µM | SF-539 > 100 µM | SNB-19 > 100 µM | SK-MEL-2 > 100 µM

O=S1(=O)c2ccccc2N=C(c2ccccc2Cl)CC1c1ccc(F)cc1 (stereo not drawn)
inactive: NCI-H522 13.6 µM | IGROV-1 17.4 µM | SK-MEL-5 16.5 µM | KM12 16.5 µM | UO-31 15.2 µM | SF-295 18.2 µM | A549 20 µM | SW-620 13.4 µM | OVCAR-5 15.7 µM | 786-0 16.6 µM | SK-MEL-28 18.2 µM | SF-539 20.3 µM | SNB-19 16.8 µM | SK-OV-3 43.2 µM | HL-60 14.5 µM | SK-MEL-2 17.8 µM
18.1 µM: HCT-15

C/C(=N\NC(=O)c1ccccc1O)C1=CNc2ccccc2S1
inactive: NCI-H522 3.34 µM | IGROV-1 5.92 µM | SK-MEL-5 6.89 µM | KM12 3.94 µM | UO-31 2.14 µM | SF-295 4.01 µM | A549 3.63 µM | SW-620 3.65 µM | OVCAR-5 3.18 µM | 786-0 4.71 µM | SK-MEL-28 9.48 µM | SF-539 2.4 µM | SNB-19 5.56 µM | SK-OV-3 15.6 µM | HL-60 3.54 µM | NCI-H226 4.35 µM | SK-MEL-2 2.15 µM

Nc1nc(SCc2ccc([N+](=O)[O-])cc2)nc2c1ncn2C1OC(CO)C(O)C1O (stereo not drawn)
> 100 µM: HCT-15
inactive: NCI-H522 89.5 µM | IGROV-1 > 100 µM | SK-MEL-5 > 100 µM | KM12 > 100 µM | UO-31 > 100 µM | SF-295 > 100 µM | A549 > 100 µM | SW-620 > 100 µM | OVCAR-5 > 100 µM | 786-0 > 100 µM | SK-MEL-28 > 100 µM | SNB-19 > 100 µM | HL-60 > 100 µM | NCI-H226 > 100 µM

CN(C)C(=N)NC(N)=S
inactive: NCI-H522 > 100 µM | IGROV-1 > 100 µM | KM12 > 100 µM | UO-31 > 100 µM | SF-295 > 100 µM | A549 > 100 µM | SW-620 > 100 µM | OVCAR-5 > 100 µM | 786-0 > 100 µM | SK-MEL-28 > 100 µM | SF-539 > 100 µM | SNB-19 > 100 µM | SK-OV-3 > 100 µM | HL-60 > 100 µM | NCI-H226 > 100 µM
> 100 µM: HCT-15

[N-]=[N+]=NC(c1cn(C2CC(O)C(CO)O2)c(=O)[nH]c1=O)C(I)I (stereo not drawn)
inactive: IGROV-1 87.7 µM | SK-MEL-5 > 100 µM | KM12 > 100 µM | UO-31 > 100 µM | SF-295 > 100 µM | A549 > 100 µM | SW-620 > 100 µM | OVCAR-5 > 100 µM | 786-0 > 100 µM | SK-MEL-28 > 100 µM | SF-539 > 100 µM | SNB-19 > 100 µM | SK-OV-3 > 100 µM | HL-60 > 100 µM | NCI-H226 9.55 µM | SK-MEL-2 > 100 µM

C=CCOC1=C2CC[C@H](O)[C@@]2(C)CCC1=O
inactive: NCI-H522 > 100 µM | IGROV-1 > 100 µM | SK-MEL-5 > 100 µM | KM12 > 100 µM | UO-31 > 100 µM | SF-295 > 100 µM | A549 > 100 µM | SW-620 > 100 µM | OVCAR-5 > 100 µM | 786-0 > 100 µM | SK-MEL-28 > 100 µM | SF-539 > 100 µM | SNB-19 > 100 µM | SK-OV-3 > 100 µM | HL-60 > 100 µM | NCI-H226 > 100 µM
> 100 µM: HCT-15

CC(=O)OCC1OC(n2c(=S)n(-c3ccccc3)c(=O)c3cc(Br)ccc32)C(OC(C)=O)C(OC(C)=O)C1OC(C)=O (stereo not drawn)
> 100 µM: HCT-15
inactive: NCI-H522 > 100 µM | IGROV-1 > 100 µM | SK-MEL-5 > 100 µM | KM12 > 100 µM | UO-31 > 100 µM | A549 > 100 µM | SW-620 > 100 µM | OVCAR-5 > 100 µM | 786-0 > 100 µM | SK-MEL-28 > 100 µM | SF-539 > 100 µM | SNB-19 > 100 µM and 70.5 µM | SK-OV-3 > 100 µM | HL-60 > 100 µM | NCI-H226 > 100 µM

COc1ccc(N2C(=O)c3c(c4[nH]c5ccccc5c4c4ccc(C(C)(C)C)cc34)C2=O)cc1
42.8 µM: HCT-15
inactive: NCI-H522 33.2 µM | IGROV-1 > 100 µM | SK-MEL-5 > 100 µM | KM12 64.9 µM | UO-31 97.1 µM | SF-295 31.8 µM | A549 47.1 µM | SW-620 61.8 µM | OVCAR-5 > 100 µM | 786-0 28.4 µM | SK-MEL-28 89.1 µM | SF-539 > 100 µM | SNB-19 54.2 µM | SK-OV-3 42.1 µM | NCI-H226 35.8 µM | SK-MEL-2 26.2 µM

Cn1ncc(=S)[nH]c1=S
inactive: NCI-H522 > 100 µM | IGROV-1 > 100 µM | UO-31 > 100 µM | SF-295 > 100 µM | A549 > 100 µM | SW-620 > 100 µM | OVCAR-5 > 100 µM | 786-0 > 100 µM | SK-MEL-28 > 100 µM | SF-539 > 100 µM | SNB-19 > 100 µM | SK-OV-3 > 100 µM | NCI-H226 > 100 µM | SK-MEL-2 > 100 µM
> 100 µM: HCT-15

O=c1[nH]c2c(nc1NC13CC4CC(CC(C4)C1)C3)c(=O)oc1ccccc12
> 100 µM: HCT-15
inactive: NCI-H522 61.1 µM | IGROV-1 > 100 µM | SK-MEL-5 36.9 µM | KM12 > 100 µM | UO-31 > 100 µM | A549 34 µM | SW-620 > 100 µM | OVCAR-5 > 100 µM | 786-0 > 100 µM | SK-MEL-28 > 100 µM | SF-539 14.9 µM | SNB-19 62.2 µM | SK-OV-3 > 100 µM | HL-60 > 100 µM | NCI-H226 27.9 µM | SK-MEL-2 > 100 µM

Cc1noc(C)c1C1=CCCCc2ccccc21
inactive: NCI-H522 36.3 µM | IGROV-1 > 100 µM | SK-MEL-5 34.1 µM | KM12 > 100 µM | UO-31 > 100 µM | SF-295 > 100 µM | A549 > 100 µM | SW-620 > 100 µM | OVCAR-5 > 100 µM | 786-0 > 100 µM | SK-MEL-28 > 100 µM | SF-539 > 100 µM | SNB-19 > 100 µM | SK-OV-3 > 100 µM | HL-60 21.7 µM | SK-MEL-2 > 100 µM
99.8 µM: HCT-15

CCOC(=O)C(=O)C1C(=O)Nc2ccccc21 (stereo not drawn)
inactive: IGROV-1 > 100 µM | KM12 > 100 µM | UO-31 > 100 µM | SF-295 > 100 µM | A549 > 100 µM | SW-620 > 100 µM | OVCAR-5 > 100 µM | 786-0 > 100 µM | SK-MEL-28 > 100 µM | SNB-19 > 100 µM | HL-60 > 100 µM | NCI-H226 > 100 µM | SK-MEL-2 > 100 µM

CCOC(OC1=C(C#N)CCC1)C(CC)[Se]c1ccccc1 (stereo not drawn)
inactive: NCI-H522 13.8 µM | IGROV-1 24.9 µM | SK-MEL-5 15 µM | KM12 64.4 µM | UO-31 24.2 µM | SF-295 16.6 µM | A549 63.1 µM | OVCAR-5 22.7 µM | 786-0 15 µM | SK-MEL-28 40.9 µM | SF-539 19 µM | SNB-19 48.1 µM | SK-OV-3 > 100 µM | HL-60 12.4 µM | NCI-H226 19.2 µM | SK-MEL-2 20.9 µM
25.6 µM: HCT-15

Cc1nc(-n2nc(-c3ccccc3)cc2-c2ccccc2)sc1C(=O)/C=C/c1ccc(Cl)cc1
inactive: NCI-H522 11.7 µM | IGROV-1 27.7 µM | SK-MEL-5 13.2 µM | KM12 11.7 µM | UO-31 9.06 µM | SF-295 15.3 µM | A549 19.5 µM | SW-620 21.5 µM | OVCAR-5 34.8 µM | 786-0 14.4 µM | SK-MEL-28 16.9 µM | SF-539 14.3 µM | SK-OV-3 28.1 µM | HL-60 14.5 µM | NCI-H226 16 µM | SK-MEL-2 19.6 µM
22.2 µM: HCT-15

Source: ChEMBL document CHEMBL1201862, “PubChem BioAssay data set” (2004)
